These are literature values, as cited in EP1019029B1, “MONOLITHIC SYSTEM CONTAINING ONE OR MORE DRUGS, CONSISTING OF THREE LAYERS WITH DIFFERENT RELEASE MECHANISMS” (CHIESI FARMACEUTICI S.p.A., priority 1997, dated 1999).

Each structure is given as a SMILES string. Like-named read-outs stand apart in the source and are kept apart here.

For the compound `C[C@@](Cc1ccc(O)c(O)c1)(NN)C(=O)O` [Carbidopa], the water solubilities (at 37°C) was 2.5 mg/mL.

Consider `COC(=O)[C@@H](N)Cc1ccc(O)c(O)c1` [Levodopa methyl ester], for which the water solubilities (at 20°C) was 500 mg/mL.
